Reference: patent US8558004B2, “Reagents and kits for detection of influenza virus and the like” (priority 2007, dated 2013)

Tested on: influenza virus (A/WS/33)
Settings: FIG. 6
Description: The protocol described here is a two-step assay, i.e., the neuraminidase reaction and firefly luciferase reaction are carried out sequentially in two steps. Approximately 1 μg of conjugate was incubated at 37° C. for 15 minutes with 0, 0.5, 5, 50, 500 or 5,000 TCID50 units of influenza virus (A/WS/33) in a 25 μL reaction solution (32.5 mM MES, pH 6.5, 4 mM CaCl2, 0.65% Triton X-100). 12.5 μL of the reaction solution was mixed with 100 μL of luciferase reaction solution (20 nM recombinant firefly luciferase, 4 mM ATP, 13.4 mM MgSO4, 100 mM Trizma, pH 7.9, 4% mannitol, and 1% sucrose) and measured for light signal using a luminometer (Sirius purchased from Berthold). Total light output was collected by integrating RLU over a period of 30 seconds.

CC(=O)NC1C(O)CC(Oc2ccc3nc(C4=NC(C(=O)O)CS4)sc3c2)(C(=O)O)OC1C(O)C(O)CO (centres unmarked) [N-acetylneuraminic acid-firefly luciferin conjugate]
influenza virus input resulting in significantly more signal in comparison with the negative control (approx. 1 μg conjugate, 37° C., 15 minutes, pH 6.5, RLU integrated over 30 seconds): 50 TCID50 units
response of the signal to virus input (over the entire range tested (0.5 to 5,000 TCID50 units)): linear response
